Measured values published in US10487071B2, “Bis-triazole compounds with anti-biofilm and anti-corrosion properties” (Université de Toulon, priority 2015, dated 2019).

How the values were obtained:
[1] = tested on: Pseudoalteromonas ulvae (TC14); test: Anti-adhesion test, strain TC14; type: cell-based; settings: Pseudoalteromonas ulvae; for activity at 200 µM: 15 h; for EC50: read-out: EC50 (effective concentration to inhibit 50% of the adhesion)
Protocol: (§1) Bacterial strains were grown on Väätänen nine-salts solution (VNSS). When the stationary phase was reached, the bacterial suspension was centrifuged. Cells were then diluted in sterile artificial sea water (ASW) and introduced in microtiter plates (sterile black PS; Nunc, Fisher Scientific, France) with the tested compound (at eight concentrations in three replicates) in the presence of three controls: (i) non-specific staining control, (ii) adhesion control, and (iii) positive control. The maximum percentage of solvent (DMSO 2%) used to dilute the tested compound was also tested in triplicate as additional control. After incubation during an optimized adhesion time (moderately 15 h), non-adhered bacteria were eliminated and adhered cells were quantified after SYTO 61 (1 μM) staining. A percentage of inhibition was calculated per well. A sigmoid dose-response curve was obtained by plotting the percentage of inhibition as a function of the log of tested compound concentration, after mean (n=3) and standard deviation (SD) calculation per triplicate for each concentration. EC50 values were then calculated for each compound.
Pseudoalteromonas ulvae (TC14) was isolated in June 2010 in the Military Harbor of Toulon (Mediterranean Sea, France) as described in F. Brian-Jaisson, A. Ortalo-Magné, L. Guentas-Dombrowsky, F. Armougom, Y. Blache, M. Molmeret, Microb. Ecol., 2014, 68, 94-110.

[2] = tested on: Pseudoalteromonas lipolytica (TC8); test: Anti-adhesion test, strain TC8; type: cell-based; settings: Pseudoalteromonas lipolytica; for activity at 200 µM: 15 h, read-out: % of adhesion at 200 μM, TC8; for EC50: read-out: EC50 (effective concentration to inhibit 50% of the adhesion), TC8
Protocol: (§2) The anti-adhesion bioassays and toxicity tests are adapted from those disclosed in M. Camps, J.-F. Briand, L. Guentas-Dombrowsky, G. Culioli, A. Bazire and Y. Blache, Mar. Poll.
as §1

[3] = tested on: Paracoccus sp. (4M6); test: Anti-adhesion test, strain 4M6; type: cell-based; settings: Paracoccus; for activity at 200 µM: 15 h, read-out: % of adhesion at 200 μM, 4M6; for EC50: read-out: EC50 (effective concentration to inhibit 50% of the adhesion), 4M6
Protocol: as §2, §1

[4] = tested on: marine bacterial strains (TC14, TC8, 4M6, TC5 and TC11); test: Anti-adhesion test, summary over the strains; type: cell-based; settings: read-out: inhibition of the adhesion of at least two marine bacterial strains
Protocol: as §1
In examples 64 and 65, the following marine bacterial strains are used.

[5] = tested on: Polaribacter sp. (TC5); test: Anti-adhesion test, strain TC5; type: cell-based; settings: for activity at 200 µM: 15 h; for EC50: read-out: EC50 (effective concentration to inhibit 50% of the adhesion)
Protocol: as §1
Polaribacter sp. (TC5) was isolated in June 2010 in the Military Harbor of Toulon (Mediterranean Sea, France) as described in F. Brian-Jaisson, A. Ortalo-Magné, L. Guentas-Dombrowsky, F. Armougom, Y. Blache, M. Molmeret, Microb. Ecol., 2014, 68, 94-110.

[6] = tested on: Shewanella sp. (TC11); test: Anti-adhesion test, strain TC11; type: cell-based; settings: for activity at 200 µM: 15 h, strain TC11, read-out: % of adhesion at 200 μM, TC11; for EC50: read-out: EC50 (effective concentration to inhibit 50% of the adhesion), strain TC11
Protocol: as §1
Shewanella sp. (TC11) was isolated in June 2010 in the Military Harbor of Toulon (Mediterranean Sea, France) as described in F. Brian-Jaisson, A. Ortalo-Magné, L. Guentas-Dombrowsky, F. Armougom, Y. Blache, M. Molmeret, Microb. Ecol., 2014, 68, 94-110.

[7] = Gravimetry (weight loss), corrosion inhibition; settings: mild steel in 1N HCl
Protocol: The corrosion rates were determined by electrochemical impedance spectroscopy measurements and gravimetry.
Weight loss measurements were performed on 2.5×2.0×0.1 cm rectangular mild steel coupons. The mild steel coupons were immersed into non-de-aerated HCl 1N solution in absence and presence of different concentrations of compounds of general formula (I). After the elapsed time, the coupons were taken out, washed, dried and weighed accurately. Experiments were duplicated.
Weight loss experiments were done to confirm the corrosion inhibitive properties of AS164.
The inhibition efficiency, IE (%), was estimated from the weight loss experiments using the following equation:
[formula] wherein CR^o and CR are respectively the corrosion rate in the absence and presence of AS164.

SMILES	activity at 200 µM [1]	EC50 [1]	activity at 200 µM [2]	activity at 200 µM [3]	EC50 [3]	inhibition at 200 µM [4]	EC50 [2]	activity at 200 µM [5]	EC50 [5]	activity at 200 µM [6]	EC50 [6]	IE % ([7]; 0.1 ppm)	IE % ([7]; 0.3 ppm)	IE % ([7]; 0.5 ppm)	IE % ([7]; 2 ppm)	IE % ([7]; 10 ppm)
Oc1ccc(CCn2cc(-c3ccc(-c4cn(CCc5ccc(O)c(Br)c5)nn4)cc3)nn2)cc1Br [NT23, 1,4 bis (1-(3-bromo-4-hydroxyphenethyl)-1H-1,2,3-triazol-4-yl) benzene]	31 ± 6.1%	40.9 ± 11.4 µM	58.3 ± 8.7%	31.8 ± 3.5%	59.9 ± 7.7 µM	≥ 65%	–	–	–	–	–	–	–	–	–	–
COc1ccc(Cn2cc(-c3ccc(-c4cn(Cc5ccc(OC)c(Br)c5)nn4)cc3)nn2)cc1Br [SA8, 1-(3-bromo-4-methoxybenzyl)-4-(4-(1-(3-bromo-4-methoxybenzyl)-1H-1,2,3-triazol-4-yl)phenyl)-1H-1,2,3-triazole]	23.3 ± 3.8%	99.5 ± 4.5 µM	24.1 ± 2.6%	33.1 ± 4.4%	163 ± 23.6 µM	–	159 ± 28.5 µM	38.3 ± 0.1%	152 ± 6.7 µM	16.4 ± 8%	122 ± 7.1 µM	–	–	–	–	–
CN(C)CCCOc1ccc(CCn2cc(-c3ccc(-c4cn(CCc5ccc(OCCCN(C)C)cc5)nn4)cc3)nn2)cc1 [SA12, 3-(4-(2-(4-(4-(1-(4-(3-(dimethylamino)propoxy)phenethyl)-1H-1,2,3-triazol-4-yl)phenyl)-1H-1,2,3-triazol-1-yl)ethyl)phenoxy)-N,N-dimethylpropan-1-amine]	42.4 ± 8.6%	187 ± 16.5 µM	30 ± 21.9%	14.3 ± 7.3%	73.2 ± 10.7 µM	–	177 ± 80.1 µM	66.2 ± 2.8%	–	41 ± 4.1%	173 ± 22.4 µM	39.30%	69.97%	94.65%	96.89%	95.73%
CN(C)CCCOc1ccc(CCCn2cc(-c3ccc(-c4cn(CCCc5ccc(OCCCN(C)C)c(Br)c5)nn4)cc3)nn2)cc1Br [SA32, 3-(4-(3-(4-(4-(1-(3-(4-(3-(dimethylamino)propoxy)-3-bromophenyl)propyl)-1H-1,2,3-triazol-4-yl)phenyl)-1H-1,2,3-triazol-1-yl)propyl)-2-bromophenoxy)-N,N-dimethylpropan-1-amine]	34.3 ± 2.6%	115 ± 20.5 µM	17.7 ± 11.1%	26.7 ± 5.6%	3.1 ± 8.6 µM	–	109 ± 37.2 µM	53.4 ± 13.8%	114 ± 28.6 µM	17.4 ± 2.9%	61.1 ± 18.5 µM	79.01%	95.43%	96.30%	96.54%	95.58%
CN(C)CCOc1ccc(CCn2cc(-c3ccc(-c4cn(CCc5ccc(OCCN(C)C)c(I)c5)nn4)cc3)nn2)cc1I [SA45, 2-(4-(2-(4-(4-(1-(4-(2-(dimethylamino)ethoxy)-3-iodophenethyl)-1H-1,2,3-triazol-4-yl)phenyl)-1H-1,2,3-triazol-1-yl)ethyl)-2-iodophenoxy)-N,N-dimethylethanamine]	42.1 ± 2.9%	175 ± 21.2 µM	30 ± 16.3%	3.2 ± 4.6%	14.2 ± 3.2 µM	–	135 ± 34.3 µM	37.5 ± 13.3%	147 ± 32.4 µM	9.3 ± 0.5%	129 ± 13.2 µM	78.07%	93.01%	94.67%	95.23%	96.09%
CN(C)CCCOc1ccc(CCn2cc(-c3ccc(-c4cn(CCc5ccc(OCCCN(C)C)c(I)c5)nn4)cc3)nn2)cc1I [SA46, 3-(4-(2-(4-(4-(1-(4-(3-(dimethylamino)propoxy)-3-iodophenethyl)-1H-1,2,3-triazol-4-yl)phenyl)-1H-1,2,3-triazol-1-yl)ethyl)-2-iodophenoxy)-N,N-dimethylpropan-1-amine]	30.2 ± 3.5%	74.4 ± 8.3 µM	17.4 ± 14.3%	26.6 ± 3.4%	48.3 ± 48.9 µM	–	71.5 ± 4.1 µM	22.4 ± 14.7%	70.6 ± 8.9 µM	5.8 ± 1.2%	22.2 ± 13.6 µM	82.23%	90.47%	94.51%	96.05%	94.96%
CN(C)CCOc1ccc(-n2cc(-c3ccc(-c4cn(-c5ccc(OCCN(C)C)cc5)nn4)cc3)nn2)cc1 [SA61, 2-(4-(4-(4-(1-(4-(2-(dimethylamino)ethoxy)phenyl)-1H-1,2,3-triazol-4-yl)phenyl)-1H-1,2,3-triazol-1-yl)phenoxy)-N,N-dimethylethanamine]	47.8 ± 1.7%	194 ± 13.7 µM	45.6 ± 1.2%	40.2 ± 0.3%	179 ± 44.9 µM	–	184.4 ± 0.6 µM	89.4 ± 0.8%	–	19.3 ± 16.9%	140 ± 63.5 µM	87.42%	91.92%	94.34%	95.55%	95.93%
CN(C)CCOc1ccc(CCn2cc(-c3ccc(-c4cn(CCc5ccc(OCCN(C)C)c(Cl)c5)nn4)cc3)nn2)cc1Cl [SA63, 2-(4-(2-(4-(4-(1-(4-(2-(dimethylamino)ethoxy)-3-chlorophenethyl)-1H-1,2,3-triazol-4-yl)phenyl)-1H-1,2,3-triazol-1-yl)ethyl)-2-chlorophenoxy)-N,N-dimethylethanamine]	30.6 ± 5.3%	122 ± 10.7 µM	29 ± 3.2%	43.6 ± 3.3%	96.6 ± 36.2 µM	–	138 ± 10.6 µM	37.3 ± 6%	133 ± 9.2 µM	37 ± 1%	136 ± 5.1 µM	90.68%	95.02%	95.82%	95.98%	96.95%
CN(C)CCCOc1ccc(CCn2cc(-c3ccc(-c4cn(CCc5ccc(OCCCN(C)C)c(Cl)c5)nn4)cc3)nn2)cc1Cl [SA64, 3-(4-(2-(4-(4-(1-(4-(3-(dimethylamino)propoxy)-3-chlorophenethyl)-1H-1,2,3-triazol-4-yl)phenyl)-1H-1,2,3-triazol-1-yl)ethyl)-2-chlorophenoxy)-N,N-dimethylpropan-1-amine]	28.4 ± 14%	147 ± 14.4 µM	20.2 ± 21.1%	31 ± 12.4%	43.3 ± 14.6 µM	–	121 ± 76.8 µM	42.9 ± 4.5%	150 ± 8.1 µM	42.6 ± 5.6%	152 ± 20.4 µM	90.59%	94.18%	95.90%	96.37%	96.64%
CN(C)CCCOc1ccc(-n2cc(-c3ccc(-c4cn(-c5ccc(OCCCN(C)C)c(Br)c5)nn4)cc3)nn2)cc1Br [SA66, 3-(4-(4-(4-(1-(4-(3-(dimethylamino)propoxy)-3-bromophenyl)-1H-1,2,3-triazol-4-yl)phenyl)-1H-1,2,3-triazol-1-yl)-2-bromophenoxy)-N,N-dimethylpropan-1-amine]	19 ± 6.5%	104 ± 4.6 µM	31.7 ± 2.2%	24.5 ± 6.9%	44.2 ± 25.2 µM	–	141 ± 16.5 µM	23.3 ± 4%	50.2 ± 10.9 µM	45.5 ± 1.1%	165 ± 37.8 µM	85.79%	88.30%	90.41%	95.16%	96.48%
